Measurements published in patent publication US12577201B2, “Glutamine analogs” (Jacobio Pharmaceuticals Co., Ltd., priority 2020, dated 2026).

Experiments:
[1] = Plasma stability, dog plasma; assay type: in vitro ADME; conditions: 1 μM, 37° C., 4 hours
Experimental: (§1) For metabolic stability, plasma from dog, monkey, swine and human were used. For stability, prodrugs (1 μM) were spiked in respective solutions and incubated in an orbital shaker at 37° C. 50 μL aliquots of the mixture in duplicate were removed, and the reaction quenched by addition of four times the volume of ice cold acetonitrile spiked with the internal standard (Dexamethasone 100 ng/mL). The samples were vortexed for 30 s and centrifuged at 15000 g for 5 min. 100 μL of the supernatant was diluted with 100 μL of water and transferred to the 0.6 mL plastic tubes on 96-well plate. Prodrug disappearance was monitored over time using a liquid chromatography and tandem mass spectrometry (LC-MS/MS).
(§2) For LC-MS/MS, prodrugs were analyzed on a ExionLC AD HPLC system coupled to REF Triple Quad 5500+ mass spectrometer with an ESI interface on an Phenomenex Kinetex 5 m C18 100A (2.1*50) mm UPLC column. The autosampler was temperature controlled and was operated at 4° C. The mobile phase used for the chromatographic separation was composed of acetonitrile/water containing 0.10% formic acid and will run at a flow rate of 0.6 mL/min for 3.5 min using gradient elution. The column effluent was monitored using […], equipped with an electrospray probe set in the positive ionization mode. Samples were introduced into the ionization source through a heated nebulized probe (400° C.). Disappearance of prodrugs will be measured from ratio of peak areas of analyte to IS.
(§3) For quantification of compound remaining, disappearance of prodrugs was measured from ratio of peak areas of analyte to IS.

[2] = Plasma stability, monkey plasma; conditions: 1 μM, 37° C., 4 hours
Experimental: as §1, with “The samples were vortexed for 30 s and centrifuged at 15000 g for 5 min.” left out
as §2, §3

[3] = Plasma stability, swine plasma; conditions: 1 μM, 37° C., 4 hours
Experimental: as §1, with “The samples were vortexed for 30 s and centrifuged at 15000 g for 5 min.” left out
as §2, §3

[4] = Plasma stability, human plasma; conditions: 1 μM, 37° C., 4 hours
Experimental: as §1, with “The samples were vortexed for 30 s and centrifuged at 15000 g for 5 min.” left out
as §2, §3

[5] = Stability in liver microsomes, human; assay type: in vitro ADME; conditions: 60 minutes, read-out: In vitro Clint
Experimental: (§4) For metabolic stability, microsomes from human, monkey, dog, rat and mouse were used. For stability, prodrugs (1 μM) were spiked in each microsomes matrix and incubated in an orbital shaker at 37° C. Aliquots of 50 μL were taken from the reaction solution at 0, 15, 30, 45 and 60 min. The reaction was stopped by the addition of 4 volumes of cold acetonitrile with IS (100 nM alprazolam, 200 nM labetalol, 200 nM caffeine and 2 μM ketoprofen). Samples were centrifuged at 3, 220 g for 40 minutes. Aliquot of 100 μL of the supernatant was mixed with 100 μL of ultra-pure H2O and then used for LC-MS/MS analysis.
(§5) For LC-MS/MS, prodrugs were analyzed on an API 4000 instrument from AB Inc (Canada) with an ESI interface coupled to Shimadzu LC system on an Waters XSelect HSS T3 C18, 2.5 m, 2.1×30 mm column.
(§6) For data analysis, peak areas were determined from extracted ion chromatograms. The slope value, k, was determined by linear regression of the natural logarithm of the remaining percentage of the parent drug vs. incubation time curve. The in vitro half-life (in vitro t1/2) was determined from the slope value: in vitro t1/2=−(0.693/k)
(§7) Conversion of the in vitro t1/2 (min) into the in vitro intrinsic clearance (in vitro CLint, in μL/min/mg protein) was done using the following equation (mean of duplicate determinations): […]

[6] = Stability in liver microsomes, monkey; assay type: in vitro ADME; conditions: 60 minutes, read-out: In vitro Clint
Experimental: as §4, §5, §6, §7

[7] = Stability in liver microsomes, dog; assay type: in vitro ADME; conditions: 60 minutes, read-out: In vitro Clint
Experimental: as §4, §5, §6, §7

[8] = Stability in liver microsomes, rat; assay type: in vitro ADME; conditions: 60 minutes, read-out: In vitro Clint
Experimental: as §4, §5, §6, §7

[9] = Stability in liver microsomes, mouse; assay type: in vitro ADME; conditions: 60 minutes, read-out: In vitro Clint
Experimental: as §4, §5, §6, §7

MC38 tumor cells = assay: Anti-tumor efficacy in MC38 model in C57BL/6 mouse (Example 11); assay type: in vivo; conditions: C57BL/6, MC38, 2 μmol/kg S.C. QD; for T/C (%) / TGI (%) / TV (mm^3) (Mean ± SEM) D6 / TV (mm^3) (Mean ± SEM) D10 / TV (mm^3) (Mean ± SEM) D13 / TV (mm^3) (Mean ± SEM) D17 / TV (mm^3) (Mean ± SEM) D20: Example 11; for TV (mm^3) at D21 (Mean ± SEM): Table 13
Experimental: Animal species: Mus musculus; Strain: C57BL/6; Age: 6-8 weeks; Sex: female. The MC38 tumor cells were maintained in vitro in DMEM medium supplemented with 10% FBS at 37° C., 5% CO2. The cells growing in an exponential growth phase were harvested and counted for tumor inoculation. The culture MC38 were harvested, re-suspended in PBS containing 50% Matrigel at a density of 1×10^7 cells/mL. Each mouse was inoculated subcutaneously in the right flank region with 1×10^6 cells in 0.1 mL of PBS containing 50% Matrigel for tumor development.
The treatments were started when the mean tumor size reached 82-129 mm^3 (average tumor size 102 mm^3). Each group contained 6 tumor bearing mice. Group 1 was treated with Vehicle (10% DMSO+90% Saline), S.C., QD.
(§8) In vivo efficacy was examined according to absolute tumor growth inhibition (TGI) and the safety was evaluated according to weight change and survival in mice.
Statistical analysis of difference in tumor volume among the groups was performed using one-way ANOVA followed by individual comparisons using Games-Howell post-hoc test (equal variance not assumed). All data was analyzed using SPSS 22.0 software.

[10] = Body weight of C57BL/6 mice bearing MC38 tumors (Example 11); assay type: in vivo, Mus musculus; conditions: C57BL/6, MC38, 2 μmol/kg S.C. QD; for BW Change (%): D6 to D20
Experimental: The treatments were started when the mean tumor size reached 82-129 mm^3 (average tumor size 102 mm^3). Each group contained 6 tumor bearing mice. Group 1 was treated with Vehicle (10% DMSO+90% Saline), S.C., QD. Group 2 was given treatments with compound 2 at 2 μmol/kg, S.C., QD. Group 3 was given treatments with compound 81 at 2 μmol/kg, S.C., QD. Group 4 was given treatments with compound 443 at 2 μmol/kg, S.C., QD. Group 5 was given treatments with compound 459 at 2 μmol/kg, S.C., QD. Group 6 was given treatments with compound 3 at 2 μmol/kg, S.C., QD.
as §8

| SMILES | plasma stability (compound remaining) [1] | plasma stability (compound remaining) [2] | plasma stability (compound remaining) [3] | plasma stability (compound remaining) [4] | microsomal CLint at 1 μM [5] [µL/min/mg] | microsomal CLint at 1 μM [6] [µL/min/mg] | microsomal CLint at 1 μM [7] [µL/min/mg] | microsomal CLint at 1 μM [8] [µL/min/mg] | microsomal CLint at 1 μM [9] [µL/min/mg] | T/C (%) (MC38 tumor cells) | TGI (%) (MC38 tumor cells) | TV (mm^3) (Mean ± SEM) D6 (MC38 tumor cells) | TV (mm^3) (Mean ± SEM) D10 (MC38 tumor cells) | TV (mm^3) (Mean ± SEM) D13 (MC38 tumor cells) | TV (mm^3) (Mean ± SEM) D17 (MC38 tumor cells) | TV (mm^3) (Mean ± SEM) D20 (MC38 tumor cells) | TV (mm^3) at D21 (Mean ± SEM) (MC38 tumor cells) [mm^3] | BW(g) (Mean ± SEM) Beginning (D6) [10] | BW Change (%) [10] | BW(g) (Mean ± SEM) End (D20) [10] |
| --- | --- | --- | --- | --- | --- | --- | --- | --- | --- | --- | --- | --- | --- | --- | --- | --- | --- | --- | --- | --- |
| CO[C@@H](CCSC)C(=O)N[C@@H](CCC(=O)C=[N+]=[N-])C(=O)OC(C)C [Compound 443, isopropyl (S)-6-diazo-2-((S)-2-methoxy-4-(methylthio)butanamido)-5-oxohexanoate] | substantially intact | substantially intact | substantially intact | substantially intact | 73.5 | 180 | 81.9 | 239 | 408 | 21.5 | 78.5 | 102 ± 6 | 152 ± 25 | 267 ± 65 | 384 ± 95 | 500 ± 119 | 500 ± 119 | 19.9 ± 0.6 | +11.9% | 22.3 ± 0.5 |
| CO[C@@H](C)C(=O)N[C@@H](CCC(=O)C=[N+]=[N-])C(=O)SC(C)C [Compound 459, S-isopropyl (S)-6-diazo-2-((S)-2-methoxypropanamido)-5-oxohexanethioate] | substantially intact | substantially intact | substantially intact | substantially intact | 18.9 | 130 | 9.57 | 115 | 71.7 | 11.8 | 88.2 | 102 ± 5 | 148 ± 22 | 183 ± 30 | 281 ± 65 | 275 ± 59 | 275 ± 59 | 19.9 ± 0.3 | +6.3% | 21.1 ± 0.5 |
